Measured values as given in ChEMBL document CHEMBL4014321, “Discovery of Pyrazolo[1,5-a]pyrimidine B-Cell Lymphoma 6 (BCL6) Binders and Optimization to High Affinity Macrocyclic Inhibitors” (J Med Chem, 2017).

Tests used:
[1] = molecular target: T1, B-cell lymphoma 6 protein (Homo sapiens, UniProt P41182, C67R/C84N/C8Q); assay: Inhibition of SMRT2 H1426W mutant peptide binding to N-terminal His6-tagged human BCL6 BTB domain C8Q/C67R/C84N mutant expressed in Escherichia coli BL21 (DE3) preincubated for 30 mins followed by SMRT2 H1426W mutant peptide addition measured after 60 mins by time-resolved fluorescence resonance energy transfer assay
SU-DHL-2 = assay: Antiproliferative activity against BCL6 dependent human SU-DHL-2 cells after 3 days by CellTiter-Glo assay; assay type: functional; settings: SU-DHL-2, 72 h
OCI-Ly3 = assay: Antiproliferative activity against BCL6 dependent human OCI-LY3 cells after 3 days by CellTiter-Glo assay; assay type: functional; settings: OCI-Ly3, 72 h
AMO1 = assay: Antiproliferative activity against BCL6 dependent human AMO1 cells after 3 days by CellTiter-Glo assay; assay type: functional; settings: AMO1, 72 h
OCI-Ly1 = assay: Antiproliferative activity against BCL6 dependent human OCI-LY1 cells after 3 days by CellTiter-Glo assay; assay type: functional; settings: OCI-Ly1, 72 h
U2932 = assay: Antiproliferative activity against BCL6 dependent human U2932 cells after 3 days by CellTiter-Glo assay; assay type: functional; settings: U2932, 72 h
TMD8 = assay: Antiproliferative activity against BCL6 dependent human TMD8 cells after 3 days by CellTiter-Glo assay; assay type: functional; settings: TMD8, 72 h
KARPAS-422 = assay: Antiproliferative activity against BCL6 […] human KARPAS422 cells after 3 days by CellTiter-Glo assay; assay type: functional; settings: KARPAS-422, 72 h
OCI-LY19 = assay: Antiproliferative activity against BCL6 independent human OCI-LY19 cells after 3 days by CellTiter-Glo assay; assay type: functional; settings: OCI-LY19, 72 h
SUD4 = assay: Antiproliferative activity against BCL6 dependent human SUDHL4 cells after 3 days by CellTiter-Glo assay; assay type: functional; settings: SU-DHL-4, 72 h
OCI-Ly10 = assay: Antiproliferative activity against BCL6 dependent human OCI-LY10 cells after 3 days by CellTiter-Glo assay; assay type: functional; settings: OCI-Ly10, 72 h
[2] = molecular target: T1, B-cell lymphoma 6 protein; assay: Binding affinity to N-terminal His6-tagged human BCL6 BTB domain C8Q/C67R/C84N mutant expressed in Escherichia coli BL21 (DE3) by surface plasmon resonance spectrometry
[3] = Inhibition of human CK2 protein
[4] = molecular target: 5-hydroxytryptamine receptor 1B (Homo sapiens, UniProt P28222); assay: Agonist activity at 5-HT1B receptor (unknown origin)
[5] = Binding affinity to GABA receptor (unknown origin) by radioligand displacement assay; design: species or system Homo sapiens

5-hydroxytryptamine receptor 1B, sequence (P28222 whole entry): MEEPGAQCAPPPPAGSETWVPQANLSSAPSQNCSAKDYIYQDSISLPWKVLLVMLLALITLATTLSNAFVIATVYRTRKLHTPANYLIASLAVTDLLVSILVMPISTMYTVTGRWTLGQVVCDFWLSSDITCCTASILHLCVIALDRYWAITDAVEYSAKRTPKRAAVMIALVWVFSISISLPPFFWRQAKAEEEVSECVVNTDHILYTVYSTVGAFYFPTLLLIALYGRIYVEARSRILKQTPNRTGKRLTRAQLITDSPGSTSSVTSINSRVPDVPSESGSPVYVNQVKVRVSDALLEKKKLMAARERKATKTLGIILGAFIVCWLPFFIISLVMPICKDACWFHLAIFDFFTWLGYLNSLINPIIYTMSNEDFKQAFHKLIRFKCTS

Row | SMILES | IC50 [1] | GI50 (SU-DHL-2) | GI50 (OCI-Ly3) | GI50 (AMO1) | GI50 (OCI-Ly1) | GI50 (U2932) | GI50 (TMD8) | GI50 (KARPAS-422) | GI50 (OCI-LY19) | GI50 (SUD4) | GI50 (OCI-Ly10) | Kd [2] | IC50 [3] | EC50 [4] | Ki [5]
1 | N#Cc1cnn2c(Nc3ccccc3)cc(N3CCCC3)nc12 | > 100 µM | – | – | – | – | – | – | – | – | – | – | – | – | – | –
2 | N#Cc1cnn2c3cc(nc12)N1CC[C@@H](C1)OCCCCOc1cc(cc2c1NC(=O)CC2)N3 | – | 10 µM | 3.98 µM | 10 µM | 7.94 µM | 10 µM | 5.01 µM | 7.94 µM | 7.94 µM | 10 µM | 7.94 µM | – | – | – | –
3 | CCNc1cc(-c2cccnc2)nc2ccnn12 | – | – | – | – | – | – | – | – | – | – | – | 689 µM | – | – | –
4 | Cc1ccc(CN2C(=O)CCc3cc4cc(c32)OC/C=C/CO[C@H]2C[C@@H](CO)N(C2)c2cc(n3ncc(Cl)c3n2)N4)cc1 | – | 6.31 µM | 15.8 µM | 20 µM | 7.94 µM | 10 µM | 15.8 µM | > 31.6 µM | 10 µM | 20 µM | 12.6 µM | – | > 10 µM | – | –
5 | CC(=O)Nc1ccc(-c2cc(NC3CC3)n3ncc(C#N)c3n2)cc1N1CC[C@@H](N(C)C)C1 | – | – | – | – | – | – | – | – | – | – | – | – | 0.012 µM | – | –
6 | CN1C(=O)CCc2cc3cc(c21)OC/C=C/CO[C@H]1C[C@@H](CO)N(C1)c1cc(n2ncc(Cl)c2n1)N3 | – | 3.16 µM | 6.31 µM | 5.01 µM | 6.31 µM | 5.01 µM | 3.98 µM | 5.01 µM | 5.01 µM | 6.31 µM | 6.31 µM | – | 7 µM | – | –
7 | COc1cccc(CN2C(=O)CCc3cc4cc(c32)OC/C=C/CO[C@H]2C[C@@H](CO)N(C2)c2cc(n3ncc(Cl)c3n2)N4)c1 | – | 6.31 µM | > 31.6 µM | 15.8 µM | 6.31 µM | 15.8 µM | 20 µM | 25.1 µM | 10 µM | 31.6 µM | 6.31 µM | – | > 10 µM | – | –
8 | O=C1CCc2cc3cc(c2N1)OCCCCO[C@H]1C[C@@H](CO)N(C1)c1cc(n2ncc(Cl)c2n1)N3 | – | 3.98 µM | 3.16 µM | 3.98 µM | 6.31 µM | 5.01 µM | 3.16 µM | 5.01 µM | 1.58 µM | 10 µM | 2.51 µM | – | 1.4 µM | – | –
9 | O=C1CCc2cc3cc(c2N1)OCCCCO[C@H]1C[C@@H](CO)N(C1)c1cc(n2nccc2n1)N3 | – | 10 µM | 15.8 µM | 12.6 µM | 12.6 µM | 15.8 µM | 10 µM | 12.6 µM | 12.6 µM | 20 µM | 12.6 µM | – | > 10 µM | – | –
10 | Cc1ccccc1CN1C(=O)CCc2cc3cc(c21)OC/C=C/CO[C@H]1C[C@@H](CO)N(C1)c1cc(n2ncc(Cl)c2n1)N3 | – | 6.31 µM | 15.8 µM | 25.1 µM | 10 µM | 10 µM | 20 µM | > 31.6 µM | 10 µM | 6.31 µM | 10 µM | – | > 10 µM | – | –
11 | O=C1CCc2cc3cc(c2N1Cc1ccccc1)OC/C=C/CO[C@H]1C[C@@H](CO)N(C1)c1cc(n2ncc(Cl)c2n1)N3 | – | 10 µM | 12.6 µM | 25.1 µM | 12.6 µM | 7.94 µM | 10 µM | 25.1 µM | 10 µM | 15.8 µM | 10 µM | – | > 10 µM | 0.57 µM | 0.25 µM
12 | O=C(O)C[C@@H]1C[C@H]2CN1c1cc(n3ncc(Cl)c3n1)Nc1cc3c(c(c1)OC/C=C/CO2)N(CC1CC(F)(F)C1)C(=O)CC3 | – | 20 µM | 20 µM | 31.6 µM | 15.8 µM | 15.8 µM | 15.8 µM | 20 µM | 10 µM | 15.8 µM | 15.8 µM | – | 0.16 µM | – | –
13 | N#Cc1cnn2c(Nc3ccc4c(c3)CCC(=O)N4)cc(N3CCCC3)nc12 | 2.9 µM | – | – | – | – | – | – | – | – | – | – | – | – | – | –
14 | O=C1CCc2cc3cc(c2N1Cc1ccncc1)OC/C=C/CO[C@H]1C[C@@H](CO)N(C1)c1cc(n2ncc(Cl)c2n1)N3 | – | 7.94 µM | 12.6 µM | 20 µM | 10 µM | 10 µM | 10 µM | 12.6 µM | 12.6 µM | 10 µM | 10 µM | – | > 10 µM | – | –
